The subject of this assay is rat ASIC1a E357A mutant channel. The assay is described as follows: Two-electrode voltage clamp, E357A mutant ASIC1a in X. laevis oocytes. The assay is classed as cell-based. To be noted: 10 µM; pH 5.5 stimulus, conditioning pH 7.4, peptide 30 s; mean ± SEM, n = 5. The procedure:
Figure 5 The pivotal role of residue D355 in the ASIC1a channel for the action of the A23K peptide ligand. (A,B) pH dependence of steady-state desensitization (A) and activation (B) in mutant channels (D355A and E357A) compared to the wild-type channel (wt). Each data point represents results from 5 cells. (C–E) Representative current traces illustrating the effects of A23K at a concentration of 10 µM on wt (C), D355A (D), and E357A (E) channels. Currents were evoked by a pH 5.5 stimulus following a conditioning pH of 7.4, with the peptide applied for 30 s preceding the pH stimulus. (F) Bar graph quantifying the effects depicted in (C,D) as a percentage of the corresponding control currents (n = 5). A value of 1.0, represented by a dotted line, corresponds to control measurements at pH 5.5 for each form of ASIC1a. The data are expressed as mean ± SEM; *** p < 0.001, **** p < 0.0001, ns non-significant vs. control, unpaired t-test.
To introduce D355A and E357A substitutions, we designed two pairs of primers. For D355A substitution, the forward primer sequence was 5′–[…]–3′, and the reverse primer (R2) for D355A was 5′–CTAGGAAGTCCAGGGCAG–3′. For E357A substitution, the forward primer sequence was 5′–[…]–3′, and the reverse primer for E357A was the same as for D355A (designated as “R2”). […]
For orientation: In two-electrode clamp one electrode senses voltage and the other passes current.

Positions of bridges follow the written chain, without caps; N, C: chain ends. Residues, ends and D or L forms follow the SMILES beside them.

Regarding `CC[C@H](C)[C@H](N)C(=O)N[C@@H](CO)C(=O)N[C@H](C(=O)N[C@@H](CC(=O)O)C(=O)N1CCC[C@H]1C(=O)N1CCC[C@H]1C(=O)N[C@H]1CSSC[C@@H]2NC(=O)[C@H](CC(N)=O)NC(=O)CNC(=O)[C@H](CO)NC(=O)CNC(=O)[C@H](CC(=O)O)NC(=O)[C@H](CCCNC(=N)N)NC(=O)[C@H](Cc3c[nH]cn3)NC(=O)[C@H](Cc3ccc(O)cc3)NC(=O)[C@H](CSSC[C@@H](C(=O)NCC(=O)N[C@@H](C)C(=O)N[C@H](C(=O)O)C(C)C)NC(=O)CNC(=O)[C@H](Cc3ccc(O)cc3)NC(=O)[C@H](CCCCN)NC(=O)[C@H](CC(=O)O)NC(=O)[C@H](Cc3ccc(O)cc3)NC(=O)[C@H](C(C)C)NC2=O)NC(=O)[C@H](Cc2ccccc2)NC(=O)[C@H](CCCNC(=N)N)NC1=O)[C@@H](C)CC` [A23K] (H-ISIDPPCRFCYHRDGSGNCVYDKYGCGAV-OH; disulfide 7-19, 10-26), the “inhibitory effect on E357A mutant channel” value is given as 47.1 ± 7.7%.
